Data as given in patent publication US11492618B2, “Expression control using a regulatable intron” (ASKLEPIOS BIOPHARMACEUTICAL, INC., priority 2017, dated 2022).

How the values were obtained:
[1] = test system: HEK293F cells; test: EGFP expression from ATF6 constructs induced by wtAAV production; type: cell-based, human
Experimental: In this experiment transfections were carried out in 24-well plates as previously described. The ATF6 plasmids (SYNP-ATF6-01 and SYNP-ATF6-02 constructs in the pMA-RQ vector) were transfected into HEK293F cells (using MAX reagent, as above) and after 24 hrs GFP was measured. After GFP measurement the same cells were transfected with the plasmids for wtAAV production pGRG25AAV2 (provided by Adrien Savvy) and pHelper plasmid from Takara/Clonetech in a 1:1 ratio. EGFP fluorescence was then measured after 1, 3, 5 and 24 hrs (FIGS. 7 and 8—not all data is shown). Both plasmids are required for wtAAV production, with the pGRG25AAV2 providing the wtAAV2 genome and the pHelper plasmid providing the E2, VA and E4 helper functions required for virus replication.
This confirmed successful AAV expression. Zs green is a variant of eGFP and as such GFP measurement was carried out on these cells as previously described.

[2] = test system: HEK293F cells; test: EGFP expression from 6xATF6 promoter constructs with and without XBP1 intron after 2 mM DTT; type: cell-based, human
Experimental: For this study two constructs were prepared: • 1) 6×ATF6 elements (having the sequence TGACGTGCT) upstream of the CMV-minimal promoter (CMV-MP) and EGFP; this construct was named SYNP-ATF6-01 (see below, SEQ ID NO: 30). • 2) 6×ATF6 elements upstream of the CMV-MP and EGFP with XBP1 intron insertion; this construct was named SYNP-ATF6-02 (see below, SEQ ID NO: 31).
HEK293F cells were used in this study. All growth conditions, transfections and analyses were carried out as described in Example 1.
24 well transfections were set-up as described above. Each condition was performed in duplicate/triplicate. 24 hrs after transfection the cells were treated with either 2 mM DTT, to induce the UPR, or by mock treatment with an equivalent volume of water. 1, 3, 5 and 24 hrs after treatment of the cells GFP fluorescence was measured as previously described.
The ratio of GFP fluorescence to the control plasmid was calculated before and after induction.

SYNP-ATF6-02: 6×ATF6 elements upstream of the CMV-MP and EGFP with XBP1 intron insertion (SEQ ID NO: 31)
background level of EGFP before wtAAV production [1]: zero
GFP expression after induction, ratio to CMV-IE ([2]; 2 mM DTT, 3 independent experiments): 4 times the level of CMV-IE
background level of GFP fluorescence ([2]; before DTT, raw data): practically zero
